This is an account of results in patent publication US12643903B2, “Bifunctional compounds for degradation of EGFR and related methods of use” (BeiGene, Ltd., priority 2020, dated 2026).

Common to all, as to format: cell-based
What all share (conditions): 16 h treatment, EGFR degradation by HTRF
A general note: Time-resolved FRET reads energy transfer from a long-lived donor to a nearby acceptor.

Experiment [1] deals with T1, EGFR (Homo sapiens, UniProt P00533, L858R/T790M).
T1 construct: endogenous in cells; host or cells: H1975
Kind of experiment: Cell Degradation 1: EGFR degradation in H1975 cells, HTRF assay. In outline:
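EGFR levels were read by HTRF (337 nm excitation, 665 and 620 nm emission) in lysates of H1975 cells exposed to compound for 16 h, with antibodies incubated overnight at room temperature. Fitting percent inhibition versus concentration to a Hill equation gave DC50.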

Experiment [2] addresses T2, EGFR (Homo sapiens, UniProt P00533, DEL746-750).
T2 construct: endogenous in cells; host or cells: HCC827
Kind of experiment: Cell Degradation 2: EGFR degradation in HCC827 cells, HTRF assay. The essentials:
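DC50 values derive from four-parameter fits of percent inhibition versus concentration. The HTRF read-out (665/620 nm ratio, 337 nm excitation) followed 16 h compound exposure of HCC827 cells, 1 h lysis and overnight room-temperature incubation with the HTRF antibodies.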

The next experiment addresses T3, EGFR LTC (Homo sapiens, UniProt P00533, C797S/L858R/T790M).
T3 construct: expressed in transfected cells; host or cells: BaF3
Kind of experiment: Cell Degradation 3: EGFR degradation in BaF3 cells (LTC), HTRF assay. The essentials: (§1)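 BaF3 cells expressing EGFR (LTC triple mutant C797S/L858R/T790M or DTC) exposed to compounds for 16 h, 8 doses from 4-fold dilution, 0.2% DMSO. Residual EGFR quantified by HTRF in lysates (triple mutant lysate diluted 1:1); DC50 from four-parameter logistic fit.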

The next experiment deals with EGFR DTC. Kind of experiment: Cell Degradation 3: EGFR degradation in BaF3 cells (DTC), HTRF assay. In outline:
as §1

T2 sequence (P00533 with tags, fused parts or gaps DEL746-750): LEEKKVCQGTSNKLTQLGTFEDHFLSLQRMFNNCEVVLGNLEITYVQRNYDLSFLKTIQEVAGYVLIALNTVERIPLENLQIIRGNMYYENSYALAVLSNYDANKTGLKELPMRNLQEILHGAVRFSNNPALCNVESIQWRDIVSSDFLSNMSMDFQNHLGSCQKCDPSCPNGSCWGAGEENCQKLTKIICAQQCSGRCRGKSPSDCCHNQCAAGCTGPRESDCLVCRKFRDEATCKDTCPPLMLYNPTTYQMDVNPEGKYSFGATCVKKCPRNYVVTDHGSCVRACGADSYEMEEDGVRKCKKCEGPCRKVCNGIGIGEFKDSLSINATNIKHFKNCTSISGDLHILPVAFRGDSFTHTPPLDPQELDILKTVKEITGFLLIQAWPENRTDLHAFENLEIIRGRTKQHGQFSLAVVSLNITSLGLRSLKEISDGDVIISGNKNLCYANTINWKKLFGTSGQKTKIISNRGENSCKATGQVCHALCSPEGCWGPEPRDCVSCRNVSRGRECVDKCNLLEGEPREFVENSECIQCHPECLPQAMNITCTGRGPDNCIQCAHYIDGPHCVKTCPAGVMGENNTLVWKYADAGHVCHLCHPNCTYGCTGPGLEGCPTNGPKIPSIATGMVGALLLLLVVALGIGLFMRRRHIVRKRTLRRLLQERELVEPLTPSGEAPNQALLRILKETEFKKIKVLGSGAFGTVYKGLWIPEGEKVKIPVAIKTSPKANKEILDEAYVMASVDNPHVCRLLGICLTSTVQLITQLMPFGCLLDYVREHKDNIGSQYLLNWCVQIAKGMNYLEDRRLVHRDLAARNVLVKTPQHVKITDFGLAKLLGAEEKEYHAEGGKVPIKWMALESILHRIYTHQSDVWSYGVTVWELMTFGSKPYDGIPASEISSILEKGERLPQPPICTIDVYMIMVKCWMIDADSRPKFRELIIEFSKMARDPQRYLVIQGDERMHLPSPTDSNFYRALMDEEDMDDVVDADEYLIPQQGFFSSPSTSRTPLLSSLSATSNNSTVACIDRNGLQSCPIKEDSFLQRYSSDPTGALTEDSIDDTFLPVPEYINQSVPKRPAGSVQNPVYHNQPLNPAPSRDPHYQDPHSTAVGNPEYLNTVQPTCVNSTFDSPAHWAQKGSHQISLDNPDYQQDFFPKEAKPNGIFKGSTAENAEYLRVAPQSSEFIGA
T2 sequence (Q96SW2 whole entry partner): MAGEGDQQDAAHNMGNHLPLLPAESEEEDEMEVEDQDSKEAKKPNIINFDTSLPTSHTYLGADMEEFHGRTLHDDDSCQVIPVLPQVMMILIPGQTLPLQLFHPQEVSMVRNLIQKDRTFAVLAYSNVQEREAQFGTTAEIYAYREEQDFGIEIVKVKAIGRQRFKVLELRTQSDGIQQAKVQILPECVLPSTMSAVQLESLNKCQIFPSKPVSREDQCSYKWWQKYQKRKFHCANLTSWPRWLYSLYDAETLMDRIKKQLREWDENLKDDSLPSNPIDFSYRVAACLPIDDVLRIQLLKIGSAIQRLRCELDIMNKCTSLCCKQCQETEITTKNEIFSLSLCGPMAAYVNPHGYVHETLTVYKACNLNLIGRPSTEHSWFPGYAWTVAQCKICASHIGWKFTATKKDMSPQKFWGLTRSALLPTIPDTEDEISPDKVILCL
T3 sequence (P00533 25-1210 T790M/C797S/L858R): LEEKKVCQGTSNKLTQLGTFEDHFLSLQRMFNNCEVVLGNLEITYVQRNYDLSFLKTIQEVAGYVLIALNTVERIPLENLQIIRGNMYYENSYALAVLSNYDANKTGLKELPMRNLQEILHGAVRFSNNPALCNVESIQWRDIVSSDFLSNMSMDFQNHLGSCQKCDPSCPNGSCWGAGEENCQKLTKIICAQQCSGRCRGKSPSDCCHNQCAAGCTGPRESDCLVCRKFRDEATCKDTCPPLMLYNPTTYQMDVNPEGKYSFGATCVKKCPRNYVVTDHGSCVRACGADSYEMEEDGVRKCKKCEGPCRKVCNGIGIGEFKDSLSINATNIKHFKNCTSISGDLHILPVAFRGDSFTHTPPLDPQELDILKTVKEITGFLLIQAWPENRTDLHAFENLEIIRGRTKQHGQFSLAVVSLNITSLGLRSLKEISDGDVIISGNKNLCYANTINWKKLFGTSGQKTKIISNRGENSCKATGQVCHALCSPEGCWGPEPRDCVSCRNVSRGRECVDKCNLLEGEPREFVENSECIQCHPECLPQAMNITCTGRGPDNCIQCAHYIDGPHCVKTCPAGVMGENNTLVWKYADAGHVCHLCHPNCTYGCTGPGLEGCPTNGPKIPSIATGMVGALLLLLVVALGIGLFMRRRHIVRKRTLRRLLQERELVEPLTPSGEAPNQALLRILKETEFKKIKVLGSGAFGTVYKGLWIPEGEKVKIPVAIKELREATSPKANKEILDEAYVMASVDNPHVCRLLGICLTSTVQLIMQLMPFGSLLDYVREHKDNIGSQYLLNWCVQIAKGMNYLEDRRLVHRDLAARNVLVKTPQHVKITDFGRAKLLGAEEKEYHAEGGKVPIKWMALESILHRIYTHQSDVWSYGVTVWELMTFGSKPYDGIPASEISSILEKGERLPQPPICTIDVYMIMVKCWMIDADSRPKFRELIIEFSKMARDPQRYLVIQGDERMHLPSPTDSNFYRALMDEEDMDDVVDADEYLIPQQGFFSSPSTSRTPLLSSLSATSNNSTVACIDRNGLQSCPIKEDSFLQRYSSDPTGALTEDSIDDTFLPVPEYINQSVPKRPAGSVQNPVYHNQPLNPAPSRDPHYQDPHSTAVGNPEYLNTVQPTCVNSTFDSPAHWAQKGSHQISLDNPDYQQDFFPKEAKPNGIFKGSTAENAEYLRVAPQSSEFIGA
T1 sequence (P00533 25-1210 T790M/L858R): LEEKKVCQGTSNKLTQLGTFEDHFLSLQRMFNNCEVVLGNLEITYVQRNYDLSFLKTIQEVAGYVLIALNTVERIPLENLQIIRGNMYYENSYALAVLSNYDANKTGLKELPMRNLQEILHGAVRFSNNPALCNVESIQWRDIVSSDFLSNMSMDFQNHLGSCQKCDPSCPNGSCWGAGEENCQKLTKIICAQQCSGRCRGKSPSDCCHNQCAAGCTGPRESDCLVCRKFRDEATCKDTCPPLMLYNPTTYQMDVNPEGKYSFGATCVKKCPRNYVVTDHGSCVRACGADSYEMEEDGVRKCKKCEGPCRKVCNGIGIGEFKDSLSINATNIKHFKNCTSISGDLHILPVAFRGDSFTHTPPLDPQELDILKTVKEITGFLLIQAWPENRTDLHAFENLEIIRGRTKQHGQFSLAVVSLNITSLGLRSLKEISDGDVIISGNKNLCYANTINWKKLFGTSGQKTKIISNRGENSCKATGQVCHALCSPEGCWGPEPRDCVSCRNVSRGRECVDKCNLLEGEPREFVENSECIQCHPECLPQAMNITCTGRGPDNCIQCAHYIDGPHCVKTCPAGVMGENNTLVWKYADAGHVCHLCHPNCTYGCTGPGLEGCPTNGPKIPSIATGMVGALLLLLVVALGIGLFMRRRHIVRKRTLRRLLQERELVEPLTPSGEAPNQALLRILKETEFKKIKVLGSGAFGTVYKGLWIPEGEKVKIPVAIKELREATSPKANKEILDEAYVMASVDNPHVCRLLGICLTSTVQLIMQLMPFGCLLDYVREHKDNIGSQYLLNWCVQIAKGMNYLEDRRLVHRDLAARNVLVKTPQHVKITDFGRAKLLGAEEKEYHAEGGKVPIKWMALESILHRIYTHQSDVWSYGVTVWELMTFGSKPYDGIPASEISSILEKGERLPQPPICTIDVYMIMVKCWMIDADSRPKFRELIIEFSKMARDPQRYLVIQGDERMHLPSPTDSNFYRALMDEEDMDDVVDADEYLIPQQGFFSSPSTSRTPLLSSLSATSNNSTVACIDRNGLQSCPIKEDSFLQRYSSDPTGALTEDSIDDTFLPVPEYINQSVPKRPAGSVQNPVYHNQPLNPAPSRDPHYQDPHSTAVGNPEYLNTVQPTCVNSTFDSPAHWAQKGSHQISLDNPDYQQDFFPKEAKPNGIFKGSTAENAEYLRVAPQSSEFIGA

Usually DC50 stands for the concentration at which degradation of the target reaches its halfway point. A higher DC50 goes with degradation only at high concentration. Take `CS(=O)(=O)N1CCc2cccc(Nc3nc(Nc4ccc(N5CCC(N6CCN(C(=O)[C@@H]7CCN(c8ccc9c(c8)C(=O)N(C8CCC(=O)NC8=O)C9=O)C7)CC6)CC5)c(F)c4)nc4[nH]ccc34)c21` (stereo partly drawn) [Example 62, 2-(2,6-dioxopiperidin-3-yl)-5-((R)-3-(4-(1-(2-fluoro-4-((4-((1-(methylsulfonyl)indolin-7-yl)amino)-7H-pyrrolo[2,3-d]pyrimidin-2-yl)amino)phenyl)piperidin-4-yl)piperazine-1-carbonyl)pyrrolidin-1-yl)isoindoline-1,3-dione]: the DC50 amounted to 4.4 nM at EGFR [1], 22.1 nM at EGFR [2], 4.7 nM at EGFR LTC and 3 nM in the experiment with EGFR DTC.

Turning to `CS(=O)(=O)N1CCc2cccc(Nc3nc(Nc4ccc(N5CCC(N6CCN(C(=O)CCN7CCN(c8ccc9c(c8)C(=O)N(C8CCC(=O)NC8=O)C9=O)CC7)CC6)CC5)c(F)c4)nc4[nH]ccc34)c21` (centres unmarked) [Example 15, 2-(2,6-dioxopiperidin-3-yl)-5-(4-(3-(4-(1-(2-fluoro-4-((4-((1-(methylsulfonyl)indolin-7-yl)amino)-7H-pyrrolo[2,3-d]pyrimidin-2-yl)amino)phenyl)piperidin-4-yl)piperazin-1-yl)-3-oxopropyl)piperazin-1-yl)isoindoline-1,3-dione], the 50% degradation concentration (DC50) worked out at 10 nM on EGFR [1], 9.2 nM on EGFR [2], 68.3 nM on EGFR LTC and 35.8 nM in the experiment on EGFR DTC.

For the compound `COc1cc(N2CCC(N3CCN(CCc4ccc(C5CCC(=O)NC5=O)cc4)CC3)CC2)ccc1Nc1ncc(Cl)c(Nc2cccc3c2N(S(C)(=O)=O)CC3)n1` (centres unmarked) [Example 34, 3-(4-(2-(4-(1-(4-((5-chloro-4-((1-(methylsulfonyl)indolin-7-yl)amino)pyrimidin-2-yl)amino)-3-methoxyphenyl)piperidin-4-yl)piperazin-1-yl)ethyl)phenyl)piperidine-2,6-dione], the DC50 at EGFR [1] is 7 nM; at EGFR [2] it was 6.7 nM; on EGFR LTC it was 276 nM; with EGFR DTC, 38.2 nM.

Consider `CS(=O)(=O)N1CCc2cccc(Nc3nc(Nc4ccc(N5CCC(N6CCN(C(=O)[C@@H]7CCN(c8ccc9c(c8)C(=O)N(C8CCC(=O)NC8=O)C9=O)C7)CC6)CC5)c(F)c4)ncc3Cl)c21` (stereo partly drawn) [Example 83, 5-((R)-3-(4-(1-(4-((5-chloro-4-((1-(methylsulfonyl)indolin-7-yl)amino)pyrimidin-2-yl)amino)-2-fluorophenyl)piperidin-4-yl)piperazine-1-carbonyl)pyrrolidin-1-yl)-2-(2,6-dioxopiperidin-3-yl)isoindoline-1,3-dione], for which the DC50 on EGFR [1] amounted to 3.2 nM; at EGFR [2] it was 3 nM; at EGFR LTC it was 14.6 nM; with EGFR DTC, 5.9 nM.

As to `COc1cc(N2CCN(CCC3CCN(c4ccc(C5CCC(=O)NC5=O)cc4)CC3)CC2)ccc1Nc1ncc(Cl)c(Nc2cccc3c2N(S(C)(=O)=O)CC3)n1` (centres unmarked) [Example 56, 3-(4-(4-(2-(4-(4-((5-chloro-4-((1-(methylsulfonyl)indolin-7-yl)amino)pyrimidin-2-yl)amino)-3-methoxyphenyl)piperazin-1-yl)ethyl)piperidin-1-yl)phenyl)piperidine-2,6-dione], the 50% degradation concentration (DC50) on EGFR [1] came out at 13.5 nM; at EGFR [2], 5.8 nM; on EGFR LTC, 233 nM; in the experiment with EGFR DTC, 23.6 nM.

With `COc1cc(N2CCC(N3CCN(CCC4CCN(c5ccc(C6CCC(=O)NC6=O)cc5)CC4)CC3)CC2)ccc1Nc1ncc(Cl)c(Nc2cccc3c2N(S(C)(=O)=O)CC3)n1` (centres unmarked) [Example 35, 3-(4-(4-(2-(4-(1-(4-((5-chloro-4-((1-(methylsulfonyl)indolin-7-yl)amino)pyrimidin-2-yl)amino)-3-methoxyphenyl)piperidin-4-yl)piperazin-1-yl)ethyl)piperidin-1-yl)phenyl)piperidine-2,6-dione], the half-maximal degradation concentration (DC50) at EGFR [1] was 7.2 nM; on EGFR [2], 8.4 nM; at EGFR LTC, 203 nM; with EGFR DTC, 48.1 nM.

Consider `COc1cc(N2CCC(N3CCN(CCC4CCN(c5ccc6c(c5)C(=O)N(C5CCC(=O)NC5=O)C6=O)CC4)CC3)CC2)c(C)cc1Nc1ncc(Br)c(Nc2cccc3c2N(S(C)(=O)=O)CC3)n1` (centres unmarked) [Example 91, 5-(4-(2-(4-(1-(4-((5-bromo-4-((1-(methylsulfonyl)indolin-7-yl)amino)pyrimidin-2-yl)amino)-5-methoxy-2-methylphenyl)piperidin-4-yl)piperazin-1-yl)ethyl)piperidin-1-yl)-2-(2,6-dioxopiperidin-3-yl)isoindoline-1,3-dione], for which the DC50 on EGFR [1] is 3.5 nM; on EGFR [2], 6.4 nM; on EGFR LTC, 39.9 nM; in the experiment with EGFR DTC it was 14.9 nM.

Turning to `COc1cc(N2CCC(N3CCN(CCc4ccc(C5CCC(=O)NC5=O)cc4)CC3)CC2)c(C)cc1Nc1ncc(Br)c(Nc2cccc3c2N(S(C)(=O)=O)CC3)n1` (centres unmarked) [Example 39, 3-(4-(2-(4-(1-(4-((5-bromo-4-((1-(methylsulfonyl)indolin-7-yl)amino)pyrimidin-2-yl)amino)-5-methoxy-2-methylphenyl)piperidin-4-yl)piperazin-1-yl)ethyl)phenyl)piperidine-2,6-dione], the 50% degradation concentration (DC50) on EGFR [1] was 12.1 nM; on EGFR [2], 13.6 nM; on EGFR LTC it was 157 nM; in the experiment on EGFR DTC, 33.7 nM.

With `CS(=O)(=O)N1CCc2cccc(Nc3nc(Nc4ccc(N5CCC(N6CCN(CCC7CCN(c8ccc(C9CCC(=O)NC9=O)cc8)CC7)CC6)CC5)c(F)c4)ncc3Cl)c21` (centres unmarked) [Example 79, 3-(4-(4-(2-(4-(1-(4-((5-chloro-4-((1-(methylsulfonyl)indolin-7-yl)amino)pyrimidin-2-yl)amino)-2-fluorophenyl)piperidin-4-yl)piperazin-1-yl)ethyl)piperidin-1-yl)phenyl)piperidine-2,6-dione], the DC50 was found to be 6 nM at EGFR [1], 5.5 nM on EGFR [2], 84.6 nM on EGFR LTC and 49.6 nM in the experiment on EGFR DTC.

For the compound `COc1cc(N2CCC(N3CCN(CCC4CCN(c5ccc6c(c5)C(=O)N(C5CCC(=O)NC5=O)C6=O)CC4)CC3)CC2)ccc1Nc1ncc(Cl)c(Nc2cccc3c2N(S(C)(=O)=O)CC3)n1` (centres unmarked) [Example 37, 5-(4-(2-(4-(1-(4-((5-chloro-4-((1-(methylsulfonyl)indolin-7-yl)amino)pyrimidin-2-yl)amino)-3-methoxyphenyl)piperidin-4-yl)piperazin-1-yl)ethyl)piperidin-1-yl)-2-(2,6-dioxopiperidin-3-yl)isoindoline-1,3-dione], the 50% degradation concentration (DC50) was found to be 3.8 nM at EGFR [1], 3.5 nM at EGFR [2], 43.1 nM at EGFR LTC and 16.7 nM in the experiment on EGFR DTC.

Take `CS(=O)(=O)N1CCc2cccc(Nc3nc(Nc4ccc(N5CCC(N6CCN(CCc7ccc(C8CCC(=O)NC8=O)c(F)c7)CC6)CC5)c(F)c4)nc4[nH]ccc34)c21` (centres unmarked) [Example 3, 3-(2-fluoro-4-(2-(4-(1-(2-fluoro-4-((4-((1-(methylsulfonyl)indolin-7-yl)amino)-7H-pyrrolo[2,3-d]pyrimidin-2-yl)amino)phenyl)piperidin-4-yl)piperazin-1-yl)ethyl)phenyl)piperidine-2,6-dione]: the DC50 on EGFR [1] came out at 9.5 nM; at EGFR [2] it was 19.8 nM; on EGFR LTC, 19.9 nM; in the experiment with EGFR DTC, 11.6 nM.

For `COc1cc(N2CCC(N3CCN(CC4CN(c5ccc6c(c5)CN(C5CCC(=O)NC5=O)C6=O)C4)CC3)CC2)ccc1Nc1ncc(Cl)c(Nc2cccc3c2N(S(C)(=O)=O)CC3)n1` (centres unmarked) [Example 85, 3-(5-(3-((4-(1-(4-((5-chloro-4-((1-(methylsulfonyl)indolin-7-yl)amino)pyrimidin-2-yl)amino)-3-methoxyphenyl)piperidin-4-yl)piperazin-1-yl)methyl)azetidin-1-yl)-1-oxoisoindolin-2-yl)piperidine-2,6-dione], the half-maximal degradation concentration (DC50) on EGFR [1] was 3 nM; on EGFR [2] it was 2.9 nM; on EGFR LTC it was 2.8 nM; in the experiment on EGFR DTC it was 1.8 nM.

Turning to `CS(=O)(=O)N1CCc2cccc(Nc3nc(Nc4ccc(N5CCC(N6CCN(CCc7cc(F)c(C8CCC(=O)NC8=O)c(F)c7)CC6)CC5)c(F)c4)nc4[nH]ccc34)c21` (centres unmarked) [Example 68, 3-(2,6-difluoro-4-(2-(4-(1-(2-fluoro-4-((4-((1-(methylsulfonyl)indolin-7-yl)amino)-7H-pyrrolo[2,3-d]pyrimidin-2-yl)amino)phenyl)piperidin-4-yl)piperazin-1-yl)ethyl)phenyl)piperidine-2,6-dione], the DC50 on EGFR [1] stood at 3.7 nM; on EGFR [2], 17.6 nM; on EGFR LTC, 4.4 nM; in the experiment with EGFR DTC it was 3 nM.

For the compound `COc1cc(N2CCC(N3CCN(C[C@H]4C[C@H](c5ccc6c(c5)CN(C5CCC(=O)NC5=O)C6=O)C4)CC3)CC2)c(C)cc1Nc1ncc(Br)c(Nc2cccc3c2N(S(C)(=O)=O)CC3)n1` (some centres unmarked) [Example 159, 3-(5-((1r,3r)-3-((4-(1-(4-((5-bromo-4-((1-(methylsulfonyl)indolin-7-yl)amino)pyrimidin-2-yl)amino)-5-methoxy-2-methylphenyl)piperidin-4-yl)piperazin-1-yl)methyl)cyclobutyl)-1-oxoisoindolin-2-yl)piperidine-2,6-dione], the DC50 on EGFR [1] is 3 nM; at EGFR [2], 2 nM; on EGFR LTC, 19 nM; with EGFR DTC it was 11 nM.
